Source: patent publication US20190330167A1, “ACTIVATORS OF HIV LATENCY” (priority 2016, published 2019)
Like-named read-outs stand apart in the source and are kept apart here.

What was measured:
[1] = system: HIV-1 gene expression in J.Lat10.6 latently infected T-cell line; assay: cells; format: cell-based; settings: for IC50: Human immunodeficiency virus 1, J-Lat 10.6, 48 h, read-out: IC50 for reactivation of HIV-1 gene expression; for percent of the cells treated with reactivated HIV-1 gene expression: J.Lat10.6 model, alone at 10 μM and in combination, 48 hrs post treatment
Procedure: The J.Lat10.6 latently infected T-cell line was treated with 4 compounds of the present invention, DP#6 (Compound 41), DP#14 (Compound 7), DP#18 (Compound 65), and DP#19 (Compound 73) and reactivated for 48 hrs. HIV-1 reactivation was measured by flowcytometry for GFP expression. Error bars represent standard deviation of n=3 experiments.
FIG. 45. […] The J.Lat10.6 model of HIV-1 latency was treated with JQ1 (+) and DP#14 (Compound 7) alone at 10 μM and in combination, and the HIV-1 gene expression measured 48 hrs post treatment. Error bars represent standard deviation of n=3 experiments. OPTI represents media alone, without DP#14.
FIG. 47. […] The J.Lat10.6 model of HIV-1 latency was treated with PFI-1 and DP#14 alone at 10 μM and in combination, and the HIV-1 gene expression measured 48 hrs post treatment. Error bars represent standard deviation of n=3 experiments. OPTI represents media alone, without DP#14.
Compounds were also evaluated in a dose ranging titration with HIV latently infected cell lines (J.Lat 6.3 and 10.6). The specificity of the selected compounds in these cell line models, were measured by inserting a CMV-DS.Red reporter into these cells to co-ordinately measure HIV specific LTR-Green fluorescent protein and non-specific DS.Red expression during FACS analysis.
The J.Lat model of HIV-1 latency is a well-established model used widely and is described in detail in the following paper:
HIV reproducibly establishes a latent infection after acute infection of T cells in vitro, Eric Verdin et al, The EMBO Journal Vol. 22 No. 8 pp 1868-1877, 2003

[2] = system: HIV-1 long terminal repeat (LTR)-driven luciferase reporter gene in FlipIn.FM HEK293 cells; assay: cells; format: cell-based; settings: for EC50: Human immunodeficiency virus 1, HEK293, HIV-LTR driven latent reporter, 11-point, 2-fold dilution series, highest concentration 40 μM, read-out: Latent reporter Av EC50; for fold change in HIV-1 gene expression over the unstimulated baseline: FlipIn.FM model, alone at 10 μM and in combination, 48 hrs post treatment
Procedure: FIG. 44. […] The FlipIn.FM model of HIV-1 latency was treated with JQ1 (+) and DP#14 (Compound 7) alone at 10 μM and in combination, and the HIV-1 gene expression measured 48 hrs post treatment. Error bars represent standard deviation of n=3 experiments. OPTI represents media alone, without DP#14.
FIG. 46. […] The FlipIn.FM model of HIV-1 latency was treated with PFI-1 and DP#14 alone at 10 μM and in combination, and the HIV-1 gene expression measured 48 hrs post treatment. Error bars represent standard deviation of n=3 experiments. OPTI represents media alone, without DP#14.
Explicitly, HEK293 derived FlipIn-FM and FlipIn-RV dual reporter cells each include a single stable HIV-1 long terminal repeat (LTR)-driven luciferase reporter genes, with a second complimentary non-HIV (off-target) luciferase reporter. These cell lines model post integration latency and read-through transcription by expressing a low level of HIV-1 Tat protein via a native Internal Ribosome Entry Site (IRES) found within Tat, from a chimeric cellular-tat gene cassette. FlipIn-FM and FlipIn-RV clones were chosen for low basal levels of LTR activity and high responsiveness to Tat as well as many Latency Reversing Agents (LRAs).
The dual reporter cell lines contain three stably integrated constructs that together allow for detection of novel LRAs, capable of potent and specific HIV reactivation. The FlipIn.FM line contains a proviral LTR-driven nef/CBR reporter fusion gene, allowing for detection of viral gene expression. A second CMV-driven CBG luciferase reporter allows for detection of off target drug effects, including non-specific activation and drug toxicity. The third construct contains the first coding exon of HIV-1 tat, within human Growth Hormone (hGH) as a chimeric gene, expressing HIV-1 Tat protein from an IRES mechanism that underlies the tat exon. This construct models read-through transcription and the low level of Tat protein expression that occurs during post integration latency. The counter screening reverse cell line, FlipIn.RV, contains the same three components with the Click Beetle Luciferase genes in the opposite orientation (LTR-CBG and CMV-CBR) for counter screening.
Compounds were evaluated in an 11-point titration using normal CMV-CBG/LTR-CBR reporter cell line and an 11 point reverse CMV-CBR/LTR-CBG reporter cell line.
The FlipIn cell lines were therefore designed with a dual purpose, to detect novel compounds that reactivate HIV-1 and to also screen out compounds that behaved in a largely non-specific manner. To achieve the latter, the cell lines contain an “off target” reporter gene construct, driven by the unrelated CMV-IE promoter, that allows for the detection of drug mediated off target effects including global gene activation as well as possible toxicity.
The HIV-LTR driven latent reporter gene identifies the HIV-specific activation, and the term “global reporter” is interchangeable with “off target reporter” and refers to the unrelated CMV-IE promoter driven reporter gene, which is used as a surrogate for global gene activation. […] The highest concentration tested here was 40 μM.

[3] = system: J.Lat10.6 T-cell line; assay: Dose dependent toxicity in the J.Lat model; format: cell-based; settings: for concentration above which notable toxicity: dose dependent toxic effect
[4] = system: latent HIV in resting memory CD4+ T cells isolated by leukapheresis from HIV+ donors on antiretroviral therapy; format: cell-based, HIV-1; settings: 72 hrs
Excerpt: FIG. 41a. […] Resting memory CD4+ T cells isolated by leukapheresis from HIV+ donors on antiretroviral therapy were reactivated for 72 hrs using known LRAs including vorinostat (Vor) also known as suberanilohydroxamic acid, another hydroxamic acid panobinostat (Pan), and the depsipeptide Romidepsin (Rom) that are all HDACi, together with JQ1 (+) which is a thienotriazolodiazepine known to inhibit the BET family of bromodomain proteins including BRD2, BRD3, and BRD4, and compared with compounds according to the present invention DP#6 (Compound 41), DP#14 (Compound 7), and DP#16 (Compound 64).
FIG. 41c. […] Resting memory CD4+ T cells isolated by leukapheresis from HIV+ donors on antiretroviral therapy were reactivated for 72 hrs using known (vorinostat, Vor; panobinostat, Pan; romidepsin, Rom; and JQ1 (+)) and compounds according to the present invention (DP#6 (Compound 41), DP#14 (Compound 7), and DP#16 (Compound 64)).
FIG. 42c. […] Resting memory CD4+ T cells isolated by leukapheresis from HIV+ donors on antiretroviral therapy were reactivated for 72 hrs using known (JQ1 (+)) and compounds according to the present invention (DP#14 (Compound 7)) alone and in combination, and HIV-1 RNA detected through qPCR.
Total peripheral blood mononuclear cells (PBMC) were stored frozen in liquid nitrogen and prior to use, vials of frozen cells (0.5×10^8 PBMCs/vial or 1×10^8 PBMCs/vial) were quick thawed in a 42° C. water bath. Cells were promptly transferred to a 15 mL tube with 5 mL FBS dropwise then, then 6 mL of RF10 was added. Cells were pelleted at 300 g for 10 min at room temperature. Following aspiration, the cells were resuspended in RF10, pooled into a 50 mL tube which was topped up with RF10. PBMC were pelleted again at 300 g for 10 min at room temperature. Following aspiration, the cells were resuspended in PBS(−/−) and counted. CD4+ T cells were then isolated from 4×10^8 PBMCs that were pelleted and resuspended in PBS(−/−) at 1×10^7 cells/40 μL. 10 μL of CD4+ T cell Biotin-Antibody cocktail (Miltenyi Biotec) for every 1×10^7 cells was added and the mix refrigerated for 5 min. 30 μL of PBS(−/−) for every 1×10^7 cells was added, and 20 μL of the CD4+ T cell MicroBeads for every 1×10^7 cells was added and the mix refrigerated for 10 min. Unlabelled CD4+ T cells were then isolated by negative selection using magnetic separation. CD4+ T cells were then counted before being diluted to 4×10^6 cells/500 μL in RF10 for each condition and seeded into a 48 well plate.
Latent HIV was reactivated in the presence of the HIV integrase inhibitor Raltagravir (Ral) to prevent any further rounds of infection. Ral was made to [2 μM] in RF10+IL-2 (2 U/mL), and used to make 1 mL preparation of each drug up at [×2]. 500 μL of the [×2 Ral/IL-2/drug] was then added to the appropriate wells containing cells. Cells were transported to PC3 and incubated for 72 hrs.
Following reactivation, 800 μL of cell supernatant was transferred to labeled 1.5 mL screwcap tubes, pelletted at 800 g for 10 min then transferred to a second set of tubes and frozen for possible use at a later date. 800 μL of PBS(−/−) was added to each well to mix the cells and 50 μL of cells transferred to another set of tubes for live/dead staining and flow cytometry. Cells were pelleted at 400 g for 10 min, the media aspirated and cells resuspended in 100 μL of a [×1] APC-cy7 live/dead stain (Life technologies).

[5] = normalized between unstimulated baseline and PMA positive control as 100%, concentration not given

SMILES: Cc1cnc(NC(=O)CCCOc2ccccc2)s1 [Compound 41]
- IC50 [1]: ~16500 nM
- EC50 [2]: 14000 nM
- dose dependent toxicity ([3]; dosed as high as 40 μM): no such toxicity
- induction of HIV-1 gene expression, % of the normalized value ([4]; at 5 μM, normalized between unstimulated baseline and PMA as 100%): 25%

SMILES: Cc1ccc(N2CCN(C(=O)Nc3ncc(Cl)s3)CC2)cc1Cl [Compound 64]
- EC50 [2]: 220 nM
- activation of HIV-1 gene expression in leukapheresis samples ([4]; at 100 nM, n=4 or n=5 donors): activation in only one patient

SMILES: Cc1ccc(N2CCN(C(=O)Nc3ncc(C#N)s3)CC2)cc1Cl [Compound 65]
- IC50 [1]: 650 nM
- EC50 [2]: 330 nM
- concentration above which notable toxicity [3]: above 1.25 μM

SMILES: Cc1cnc(NC(=O)N2CCN(c3cnc(Cl)c(Cl)c3)CC2)s1 [Compound 73]
- IC50 [1]: < 110 nM
- EC50 [2]: 280 nM
- concentration above which notable toxicity [3]: > 156 nM

SMILES: Cc1sc2c(c1C)C(c1ccc(Cl)cc1)=N[C@@H](CC(=O)OC(C)(C)C)c1nnc(C)n1-2 [JQ1 (+), reference compound]
- percent of the cells treated with reactivated HIV-1 gene expression [1]: 22.8%
- fold change in HIV-1 gene expression over the unstimulated baseline [2]: 12.8 fold
- induction of HIV-1 gene expression, % of the normalized value [4, 5]: 39%

SMILES: COc1ccccc1S(=O)(=O)Nc1ccc2c(c1)CN(C)C(=O)N2 [PFI-1, reference compound]
- percent of the cells treated with reactivated HIV-1 gene expression [1]: 20.6%
- fold change in HIV-1 gene expression over the unstimulated baseline [2]: 3.6 fold

SMILES: Cc1[nH]c2ccccc2c1CCNCc1ccc(/C=C/C(=O)NO)cc1 [Panabinostat, reference compound]
- induction of HIV-1 gene expression, % of the normalized value [4, 5]: 57%

SMILES: C/C=C1\NC(=O)[C@H]2CSSCC/C=C/[C@H](CC(=O)N[C@H](C(C)C)C(=O)N2)OC(=O)[C@H](C(C)C)NC1=O [Romidepsin, reference compound]
- induction of HIV-1 gene expression, % of the normalized value [4, 5]: 67%

SMILES: O=C(CCCCCCC(=O)Nc1ccccc1)NO [Vorinostat, suberanilohydroxamic acid, reference compound]
- induction of HIV-1 gene expression, % of the normalized value [4, 5]: 58%
